Source: patent US6994956B2, “Method for assaying enzyme activity” (Bayer Pharmaceuticals Corporation, priority 2003, dated 2006)

Columns and labels:
[1] = biological target: fatty acid synthase (FAS) (Homo sapiens, UniProt P49327); test: Phase partition assay of fatty acid synthase activity; type: biochemical; conditions: FAS (35 ng), incubated for 90 minutes, conditions of FIG. 1
Method: FAS was incubated at varying concentrations and times at room temperature with 400 μM NADPH, 100 μM acetyl-CoA, and 20 μM malonyl-CoA (0.02 μCi [malonyl-2-^14C]-CoA) in buffer containing 50 mM MOPS (pH 6.8), 5 mM DTT, 1 mM EDTA, and 0.03% BSA in a total volume of 100 μL. The reaction was terminated by the addition of 10 μL of 10 N acetic acid, followed by the addition of 150 μL Microscint™-CAT. The mix was allowed to incubate overnight prior to data acquisition.
Inhibition of FAS by cerulenin. FAS (35 ng) was incubated for 90 minutes with cerulenin under conditions described in FIG. 1.
This method of the present invention permits radiometric detection of FAS activity via a gain of signal assay using [2-^14C]malonyl CoA as the radiolabel and partitioning of the radioactive products (^14C-labeled oleic acid and palmitic acid) into the PPSF (Microscint™-E), following acidification and addition of PPSF to the reaction mixture.
A typical 96-well density reaction is partitioned in the following manner: an enzyme assay inhibitor test mix (100 μL) containing enzyme, substrates, test compounds, and buffer components is incubated at room temperature to generate the fatty acid products. […] Enzyme activity is proportional to the radioactivity in the organic phase as determined by liquid scintillation counting. […]

[2] = biological target: farnesyl-diphosphate synthase (FPPS) (Homo sapiens, UniProt P14324); conditions: FPPS (25 ng), incubated for 2 hours, conditions of FIG. 4
Sequence of farnesyl-diphosphate synthase (FPPS) (P14324 whole entry): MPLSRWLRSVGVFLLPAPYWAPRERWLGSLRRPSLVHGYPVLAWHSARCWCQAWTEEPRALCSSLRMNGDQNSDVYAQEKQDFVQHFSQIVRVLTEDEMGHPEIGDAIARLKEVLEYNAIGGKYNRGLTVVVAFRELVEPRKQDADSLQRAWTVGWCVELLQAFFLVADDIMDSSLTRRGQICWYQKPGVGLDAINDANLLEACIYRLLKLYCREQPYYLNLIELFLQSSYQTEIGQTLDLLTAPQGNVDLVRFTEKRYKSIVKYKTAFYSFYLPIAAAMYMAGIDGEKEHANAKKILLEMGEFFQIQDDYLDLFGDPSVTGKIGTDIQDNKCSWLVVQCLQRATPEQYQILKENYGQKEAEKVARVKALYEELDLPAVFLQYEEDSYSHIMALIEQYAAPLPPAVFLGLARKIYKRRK
Method: Time course and protein dependence of farnesyl-diphosphate synthase (FPPS)-produced product partitioning into the organic phase. FPPS was incubated at varying concentrations and times at room temperature with 5 μM geranyl pyrophosphate (GPP) and 5 μM IPP (0.0125 μCi; [1-^14C]isopentenyl pyrophosphate) in a buffer containing 25 mM HEPES (pH 7.5), 1 mM DTT, and 1 mM MgCl2 in a total volume of 40 μL. The reaction was terminated by the addition of 10 μL of 5% phosphoric acid, followed by 50 μL Microscint™-CAT. The mix was allowed to incubate two hours prior to data acquisition. […]
A typical 384-well density reaction is partitioned with the following proportion of reagents: 40 μL enzyme assay inhibitor test mix containing FPP synthetase, substrates, test compounds, and buffer components is incubated at room temperature to generate farnesyl diphosphate. […] Enzyme activity is proportional to the radioactivity in the organic phase as determined by liquid scintillation counting (LSC). This radioactivity corresponds to products of acid treatment of the enzyme reaction, farnesol and nerolidol, as determined by LSC of authentic [1,2-^14C]trans, trans farnesol. […] The theoretical signal to background of the assay is established by comparing CPMs in the PPSF using equimolar amounts and equal amounts of radioactivity of radiolabeled substrate and product. […]

Sequence of fatty acid synthase (FAS) (P49327 whole entry, species assumed): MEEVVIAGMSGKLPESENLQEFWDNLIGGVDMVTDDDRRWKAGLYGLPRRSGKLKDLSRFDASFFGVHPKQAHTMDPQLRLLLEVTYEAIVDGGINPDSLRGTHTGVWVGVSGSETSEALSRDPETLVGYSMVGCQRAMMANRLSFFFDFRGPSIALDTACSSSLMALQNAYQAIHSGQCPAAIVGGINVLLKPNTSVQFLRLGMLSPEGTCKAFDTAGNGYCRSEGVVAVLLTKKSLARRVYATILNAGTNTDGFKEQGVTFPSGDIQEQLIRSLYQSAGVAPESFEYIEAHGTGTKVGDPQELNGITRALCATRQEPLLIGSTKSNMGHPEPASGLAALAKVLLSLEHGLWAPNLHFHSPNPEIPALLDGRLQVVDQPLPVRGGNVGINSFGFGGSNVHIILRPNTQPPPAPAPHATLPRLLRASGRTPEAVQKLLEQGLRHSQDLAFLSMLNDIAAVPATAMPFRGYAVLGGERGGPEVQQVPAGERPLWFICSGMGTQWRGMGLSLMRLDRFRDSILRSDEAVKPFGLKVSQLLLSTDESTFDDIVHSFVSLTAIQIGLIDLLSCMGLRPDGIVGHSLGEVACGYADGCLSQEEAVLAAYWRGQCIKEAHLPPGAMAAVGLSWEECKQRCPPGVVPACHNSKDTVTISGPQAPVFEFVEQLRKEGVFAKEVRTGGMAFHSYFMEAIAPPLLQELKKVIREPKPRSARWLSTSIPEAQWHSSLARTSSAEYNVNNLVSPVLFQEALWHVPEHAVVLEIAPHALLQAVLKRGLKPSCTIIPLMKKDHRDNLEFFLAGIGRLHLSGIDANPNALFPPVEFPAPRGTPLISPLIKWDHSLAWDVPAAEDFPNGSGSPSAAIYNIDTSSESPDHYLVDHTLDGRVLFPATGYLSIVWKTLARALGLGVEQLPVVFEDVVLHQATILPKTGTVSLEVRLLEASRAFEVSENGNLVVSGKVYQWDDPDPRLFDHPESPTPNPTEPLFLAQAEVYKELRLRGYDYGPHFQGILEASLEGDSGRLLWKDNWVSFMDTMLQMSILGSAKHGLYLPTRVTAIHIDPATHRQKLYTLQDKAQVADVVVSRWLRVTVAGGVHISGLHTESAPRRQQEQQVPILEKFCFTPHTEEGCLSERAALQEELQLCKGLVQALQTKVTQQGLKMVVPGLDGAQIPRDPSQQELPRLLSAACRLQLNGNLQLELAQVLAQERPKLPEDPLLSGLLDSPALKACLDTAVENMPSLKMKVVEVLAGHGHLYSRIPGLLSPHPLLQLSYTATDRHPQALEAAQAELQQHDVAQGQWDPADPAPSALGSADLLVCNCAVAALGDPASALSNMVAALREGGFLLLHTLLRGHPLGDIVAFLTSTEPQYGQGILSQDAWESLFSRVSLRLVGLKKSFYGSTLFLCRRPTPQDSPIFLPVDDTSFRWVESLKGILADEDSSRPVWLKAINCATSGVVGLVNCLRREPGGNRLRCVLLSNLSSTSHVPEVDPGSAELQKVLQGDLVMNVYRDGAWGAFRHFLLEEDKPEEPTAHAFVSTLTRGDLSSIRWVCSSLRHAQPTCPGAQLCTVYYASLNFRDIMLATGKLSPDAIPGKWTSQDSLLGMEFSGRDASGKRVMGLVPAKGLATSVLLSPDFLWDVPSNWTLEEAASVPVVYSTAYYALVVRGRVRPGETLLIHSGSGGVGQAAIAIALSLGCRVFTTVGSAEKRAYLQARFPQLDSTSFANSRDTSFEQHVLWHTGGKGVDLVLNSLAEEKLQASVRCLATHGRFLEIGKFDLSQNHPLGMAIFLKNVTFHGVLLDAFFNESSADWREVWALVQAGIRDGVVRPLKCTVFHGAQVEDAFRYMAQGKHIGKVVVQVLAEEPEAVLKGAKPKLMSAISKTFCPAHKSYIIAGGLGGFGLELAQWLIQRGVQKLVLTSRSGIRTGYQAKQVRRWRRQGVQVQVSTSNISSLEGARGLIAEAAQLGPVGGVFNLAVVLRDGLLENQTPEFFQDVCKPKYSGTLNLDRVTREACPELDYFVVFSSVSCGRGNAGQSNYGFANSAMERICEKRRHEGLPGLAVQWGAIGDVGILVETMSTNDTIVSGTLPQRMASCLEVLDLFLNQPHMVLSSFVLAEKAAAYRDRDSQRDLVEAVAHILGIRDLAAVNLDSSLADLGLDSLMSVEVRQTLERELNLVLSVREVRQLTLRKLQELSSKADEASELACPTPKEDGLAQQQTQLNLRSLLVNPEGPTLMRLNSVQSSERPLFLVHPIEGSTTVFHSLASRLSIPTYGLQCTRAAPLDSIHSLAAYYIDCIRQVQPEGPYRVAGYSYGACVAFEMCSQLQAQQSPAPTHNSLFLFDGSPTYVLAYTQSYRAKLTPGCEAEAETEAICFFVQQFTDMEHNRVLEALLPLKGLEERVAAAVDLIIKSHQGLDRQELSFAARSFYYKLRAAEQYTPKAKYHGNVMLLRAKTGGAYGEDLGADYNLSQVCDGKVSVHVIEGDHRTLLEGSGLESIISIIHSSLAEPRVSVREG

Inhibition of FAS [1] | Inhibition of FPPS [2] | Structure (SMILES)
Inhibition |  | C/C=C/C/C=C/CCC(=O)[C@H]1O[C@H]1C(N)=O [cerulenin]
 | Inhibition | NCCCC(O)(P(=O)(O)O)P(=O)(O)O [alendronate]
